The target of one assay is T1, human recombinant COX‐1 (Homo sapiens, UniProt P23219).
T1 construct: purchased Sigma Chemical Co. (St. Louis, MO, USA)
As to the kind of experiment: In vitro fluorometric COX‐1 inhibitory assay. It is filed as biochemical. As to conditions: mean ± SEM; for IC50: human recombinant enzyme. The protocol: The COX‐1/2 inhibitory potential of bis‐chalcones was assessed with an in vitro fluorometric assay, based on the protocol outlined by Sigma‐Aldrich in their COX‐2 Inhibitor Screening Kit.
To conduct the assay, human recombinant COX‐1 or COX‐2 (2.5 ng/µL) was combined with diluted hemin (1 µM), COX cofactor, and ampliflu red (100 µM) in assay buffer (trizma hydrochloride pH = 8.0 and EDTA 0.1 µM).

The target in the next assay is T2, human recombinant COX‐2 (Homo sapiens, UniProt P35354).
T2 construct: purchased Sigma Chemical Co. (St. Louis, MO, USA)
T2 sequence (P35354 18-604): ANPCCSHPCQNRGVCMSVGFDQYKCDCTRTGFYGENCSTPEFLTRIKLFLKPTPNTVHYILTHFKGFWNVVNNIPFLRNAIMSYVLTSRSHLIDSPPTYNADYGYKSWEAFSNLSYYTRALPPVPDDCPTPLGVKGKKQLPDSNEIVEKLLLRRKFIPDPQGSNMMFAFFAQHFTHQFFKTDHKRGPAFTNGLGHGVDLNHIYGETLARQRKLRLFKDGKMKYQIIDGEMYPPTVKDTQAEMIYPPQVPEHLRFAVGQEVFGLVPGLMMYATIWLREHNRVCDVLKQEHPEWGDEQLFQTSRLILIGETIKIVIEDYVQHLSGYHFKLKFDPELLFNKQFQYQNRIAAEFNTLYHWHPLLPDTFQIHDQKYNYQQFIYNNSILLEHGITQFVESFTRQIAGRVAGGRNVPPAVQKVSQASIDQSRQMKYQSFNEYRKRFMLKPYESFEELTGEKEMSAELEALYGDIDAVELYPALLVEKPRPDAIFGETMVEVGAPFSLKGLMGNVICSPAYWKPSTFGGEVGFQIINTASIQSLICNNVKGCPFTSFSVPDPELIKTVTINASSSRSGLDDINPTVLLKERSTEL
Description: In vitro fluorometric COX‐2 inhibitory assay and selectivity index. It is filed as biochemical. Conditions: for IC50: human recombinant enzyme.

For another assay, the system named is COX‐2. More on the design: method as in PMID 824724. Conditions: measured in rabbit cell; cited from earlier work.
Where [1] appears, read: at 100 μM, highest tested concentration.
Where [2] appears, read: at 100 μM, highest tested concentration, mean ± SEM.
Where [3] appears, read: SI = % inhibition COX‐2 / % inhibition COX‐1 at 100 µM.

T1 sequence (P23219 24-599): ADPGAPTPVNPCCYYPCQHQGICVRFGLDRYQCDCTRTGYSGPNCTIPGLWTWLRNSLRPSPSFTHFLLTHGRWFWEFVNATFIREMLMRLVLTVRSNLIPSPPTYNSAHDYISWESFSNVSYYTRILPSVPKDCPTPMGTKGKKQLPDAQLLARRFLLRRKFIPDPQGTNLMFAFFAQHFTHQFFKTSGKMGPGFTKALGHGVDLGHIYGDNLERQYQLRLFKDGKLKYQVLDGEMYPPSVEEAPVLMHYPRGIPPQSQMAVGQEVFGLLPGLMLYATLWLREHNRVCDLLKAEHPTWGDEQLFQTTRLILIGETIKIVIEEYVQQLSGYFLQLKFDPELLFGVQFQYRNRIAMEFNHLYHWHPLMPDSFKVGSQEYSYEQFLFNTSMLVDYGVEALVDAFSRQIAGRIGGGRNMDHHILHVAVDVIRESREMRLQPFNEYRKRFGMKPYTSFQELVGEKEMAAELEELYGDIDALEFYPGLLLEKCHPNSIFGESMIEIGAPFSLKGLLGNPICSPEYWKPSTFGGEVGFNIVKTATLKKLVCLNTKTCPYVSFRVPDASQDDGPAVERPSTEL

In general, inhibition refers to the drop in the measured response relative to a control, in per cent. `COc1ccc(/C=C/C(=O)c2c(OC)cc(OC)c(C(=O)/C=C/c3ccc(OC)c(OC)c3)c2OC)cc1OC` [Compound 10, (2E,2′E)−1,1′‐(2,4,6‐Trimethoxy‐1,3‐phenylene)bis[3‐(3,4‐dimethoxyphenyl)prop‐2‐en‐1‐one]]: the inhibition at 100 µM on human recombinant COX‐1 (setting [1]) and on human recombinant COX‐2 (setting [2]) was under 30% in each case.
With `COc1ccc(/C=C/C(=O)c2c(OC)cc(OC)c(C(=O)/C=C/c3ccc(OC)cc3)c2OC)cc1` [Compound 11, (2E,2′E)−1,1′‐(2,4,6‐Trimethoxy‐1,3‐phenylene)bis[3‐(4‐methoxyphenyl)prop‐2‐en‐1‐one]], the inhibition at 100 µM at human recombinant COX‐1 (setting [1]) and at human recombinant COX‐2 (setting [2]) was under 30% in each case.
As for `COc1cc(OC)c(C(=O)/C=C/c2ccc(O)cc2)c(OC)c1C(=O)/C=C/c1ccc(O)cc1` [Compound 12, (2E,2′E)−1,1′‐(2,4,6‐Trimethoxy‐1,3‐phenylene)bis[3‐(4‐hydroxyphenyl)prop‐2‐en‐1‐one]], the inhibition at 100 µM at human recombinant COX‐1 (setting [1]) and on human recombinant COX‐2 (setting [2]) was about 50% in each case. Moreover, the “Selectivity index (SI)” value on human recombinant COX‐2 (setting [3]) is 0.9.
As a reminder, the IC50 is the concentration at which inhibition is half-maximal. Consider `COc1cc(/C=C/C(=O)c2c(OC)cc(OC)c(C(=O)/C=C/c3ccc(O)c(OC)c3)c2OC)ccc1O` [Compound 13, (2E,2′E)−1,1′‐(2,4,6‐Trimethoxy‐1,3‐phenylene)bis[3‐(4‐hydroxy‐3‐methoxyphenyl)prop‐2‐en‐1‐one]], for which the half-inhibitory concentration (IC50) was 24 ± 3 µM at human recombinant COX‐1 and 5.5 ± 0.7 µM on human recombinant COX‐2 (mean ± SEM). Besides, on human recombinant COX‐2 (SI = IC50 COX‐1 / IC50 COX‐2), the “Selectivity index (SI)” value was found to be 4.4.
For `COc1cc(OC)c(C(=O)/C=C/c2ccc(Br)cc2)c(OC)c1C(=O)/C=C/c1ccc(Br)cc1` [Compound 14, (2E,2′E)−1,1′‐(2,4,6‐Trimethoxy‐1,3‐phenylene)bis[3‐(4‐bromophenyl)prop‐2‐en‐1‐one]], the inhibition at 100 µM at human recombinant COX‐1 (setting [1]) and at human recombinant COX‐2 (setting [2]) was under 30% in each case.
On to `COc1cc(OC)c(C(=O)/C=C/c2cccc(Cl)c2)c(OC)c1C(=O)/C=C/c1cccc(Cl)c1` [Compound 15, (2E,2′E)−1,1′‐(2,4,6‐Trimethoxy‐1,3‐phenylene)bis[3‐(3‐chlorophenyl)prop‐2‐en‐1‐one]], for which the inhibition at 100 µM on human recombinant COX‐1 (setting [1]) and on human recombinant COX‐2 (setting [2]) was under 30% throughout.
On to `COCOc1cc(OCOC)c(C(=O)/C=C/c2ccc(OC)c(OC)c2)c(OCOC)c1C(=O)/C=C/c1ccc(OC)c(OC)c1` [Compound 19, (2E,2′E)−1,1′‐[2,4,6‐Tris(methoxymethoxy)−1,3‐phenylene]bis[3‐(3,4‐dimethoxyphenyl)prop‐2‐en‐1‐one]], for which the inhibition at 100 µM on human recombinant COX‐1 (setting [1]) and on human recombinant COX‐2 (setting [2]) was under 30% throughout.
For the compound `COCOc1cc(OCOC)c(C(=O)/C=C/c2ccc(OC)cc2)c(OCOC)c1C(=O)/C=C/c1ccc(OC)cc1` [Compound 20, (2E,2′E)−1,1′‐[2,4,6‐Tris(methoxymethoxy)−1,3‐phenylene]bis[3‐(4‐methoxyphenyl)prop‐2‐en‐1‐one]], the inhibition at 100 µM on human recombinant COX‐1 (setting [1]) and at human recombinant COX‐2 (setting [2]) was under 30% in each case.
For `COCOc1ccc(/C=C/C(=O)c2c(OCOC)cc(OCOC)c(C(=O)/C=C/c3ccc(OCOC)c(OC)c3)c2OCOC)cc1OC` [Compound 21, (2E,2′E)−1,1′‐[2,4,6‐Tris(methoxymethoxy)−1,3‐phenylene]bis{3‐[3‐methoxy‐4‐(methoxymethoxy)phenyl]prop‐2‐en‐1‐one}], the inhibition at 100 µM at human recombinant COX‐1 (setting [1]) and on human recombinant COX‐2 (setting [2]) was under 30% throughout.
Turning to `COCOc1cc(OCOC)c(C(=O)/C=C/c2ccc(Br)cc2)c(OCOC)c1C(=O)/C=C/c1ccc(Br)cc1` [Compound 22, (2E,2′E)−1,1′‐[2,4,6‐Tris(methoxymethoxy)−1,3‐phenylene]bis(3‐(4‐bromophenyl)prop‐2‐en‐1‐one)], the inhibition at 100 µM on human recombinant COX‐1 (setting [1]) and on human recombinant COX‐2 (setting [2]) was under 30% throughout.
In the case of `COCOc1ccc(/C=C/C(=O)c2c(OCOC)cc(OCOC)c(C(=O)/C=C/c3ccc(OCOC)cc3)c2OCOC)cc1` [Compound 25, (2E,2′E)−1,1′‐[2,4,6‐Tris(methoxymethoxy)−1,3‐phenylene]bis{3‐[4‐(methoxymethoxy)phenyl]prop‐2‐en‐1‐one}], the inhibition at 100 µM at human recombinant COX‐1 (setting [1]) and on human recombinant COX‐2 (setting [2]) was under 30% each time.
Regarding `COc1ccc(/C=C/C(=O)c2c(O)cc(O)c(C(=O)/C=C/c3ccc(OC)c(OC)c3)c2O)cc1OC` [Compound 26, (2E,2′E)−1,1′‐(2,4,6‐Trihydroxy‐1,3‐phenylene)bis[3‐(3,4‐dimethoxyphenyl)prop‐2‐en‐1‐one]], the inhibition at 100 µM on human recombinant COX‐1 (setting [1]) and at human recombinant COX‐2 (setting [2]) was 40 to 50% in each case. Besides, the “Selectivity index (SI)” value at human recombinant COX‐2 (setting [3]) was 0.8.
On to `COc1ccc(/C=C/C(=O)c2c(O)cc(O)c(C(=O)/C=C/c3ccc(OC)cc3)c2O)cc1` [Compound 27, (2E,2′E)−1,1′‐(2,4,6‐Trihydroxy‐1,3‐phenylene)bis[3‐(4‐methoxyphenyl)prop‐2‐en‐1‐one]], for which the IC50 at human recombinant COX‐1 worked out at 48 ± 2 µM; at human recombinant COX‐2 (mean ± SEM), 44 ± 3 µM. Further, the “Selectivity index (SI)” value on human recombinant COX‐2 (SI = IC50 COX‐1 / IC50 COX‐2) came to 1.2.
In the case of `COc1cc(/C=C/C(=O)c2c(O)cc(O)c(C(=O)/C=C/c3ccc(O)c(OC)c3)c2O)ccc1O` [Compound 28, (2E,2′E)−1,1′‐(2,4,6‐Trihydroxy‐1,3‐phenylene)bis[3‐(4‐hydroxy‐3‐methoxyphenyl)prop‐2‐en‐1‐one]], the half-maximal inhibitory concentration (IC50) on human recombinant COX‐1 was 37 ± 4 µM; on human recombinant COX‐2 (mean ± SEM), 14.6 ± 0.5 µM. At human recombinant COX‐2 (SI = IC50 COX‐1 / IC50 COX‐2), the “Selectivity index (SI)” value came out at 2.6.
Turning to `O=C(/C=C/c1ccc(Br)cc1)c1c(O)cc(O)c(C(=O)/C=C/c2ccc(Br)cc2)c1O` [Compound 29, (2E,2′E)−1,1′‐(2,4,6‐Trihydroxy‐1,3‐phenylene)bis[3‐(4‐bromophenyl)prop‐2‐en‐1‐one]], the inhibition at 100 µM on human recombinant COX‐1 (setting [1]) and at human recombinant COX‐2 (setting [2]) was 40 to 50% in each case. For the same compound, on human recombinant COX‐2 (setting [3]), the “Selectivity index (SI)” value is reported as 1.1. The “COX‐2 IC50, µM or Inhibition, %” value on human recombinant COX‐2 (cell carries superscript 100 μM (highest tested concentration)) was 58 ± 3 µM ^100 μM.
Regarding `Cc1c(Cl)cccc1Nc1ccccc1C(=O)O` [tolfenamic acid], in the assay with COX‐2, the half-inhibitory concentration (IC50) was 0.64 µM.
In the case of “(2E,2′E)−1,1′‐{2,4,6‐Tris[(2‐methoxyethoxy)methoxy]−1,3‐phenylene}bis(3‐{3,4‐bis[(2‐methoxyethoxy)methoxy]phenyl}prop‐2‐en‐1‐one) [Compound 24]”, the “COX‐1 Inhibition, %” value at human recombinant COX‐1 (setting [1]) is on record as under 30% ^100 μM. Besides, the “COX‐2 Inhibition, %” value on human recombinant COX‐2 (setting [2]) was under 30% ^100 μM.

(Values after PMC13110330, “Design, Synthesis, and Evaluation of New Polyhydroxylated B is‐Chalcones as Potential COX‐2 Selective Inhibitors” (Chemmedchem, 2026).)
